Assay results reported in publication PMC6832524, “A Nature-Inspired Design Yields a New Class of Steroids Against Trypanosomatids” (Molecules, 2019).
Like-named read-outs stand apart in the source and are kept apart here.

Experiments:
[1] = test system: L. infantum (MHOM/BR/2002/LPC-RPV) promastigotes; assay: in vitro anti-Leishmania activity, promastigotes, resazurin; type: cell-based, Leishmania infantum
[2] = test system: T. cruzi epimastigotes, Tulahuen 2 strain (genotype TcVI); assay: in vitro anti-T. cruzi activity, epimastigote growth (absorbance 600 nm); type: cell-based, Trypanosoma cruzi
Procedure: Control parasites were cultivated in 0.4% DMSO. Each concentration of the compound was evaluated in duplicate.

[3] = test system: promastigotes L. braziliensis/ L. amazonensis; assay: in vitro anti-Leishmania activity, promastigotes (Table 1S); type: cell-based; conditions: read-out: IC50 ± %SD (µM) promastigotes L. braziliensis/ L. amazonensis
[4] = test system: L. amazonensis (promastigotes); assay: in vitro anti-Leishmania activity, promastigotes, resazurin; type: cell-based; conditions: maximum dose tested 25 µM, read-out: IC50 ± %SD (µM) L. amazonensis
[5] = test system: L. infantum .uy (parasites isolated from two dogs in the first Leishmaniasis outbreak in Uruguay); assay: in vitro activity against L. infantum isolated from dogs in Uruguay; type: cell-based, Leishmania infantum; conditions: for IC50: Leishmania infantum, read-out: IC50 ± %SD (µM) L. infantum .uy
Procedure: Compounds were dissolved in dimethylsulfoxide (DMSO).
For assessing the amastigote form of all Leishmania strains were cultured in the RPMI described above. Parasites were seeded at 1 × 10^6 cells/mL and at each time point counted at least five times to obtain a growth curve. […] Control conditions of parasites without drug (100% growth) and medium without parasites were included. After 72 h at 28 °C parasite viability was determined by the resazurin method described. Infection with L. infantum. THP-1 monocytes (ATCC®TIB-202™) were grown following ATCC recommendations and seeded at 30,000 cells/well onto 18-mm round glass coverslips in 12 wells. For stimulation cells were incubated with 100 nM of PMA for 48 h, PMA was washed and cells left with growth media for 24 h more after incubation with parasites. 30,000 parasites/well were added and left to interact. After 48 h, coverslips were washed with PBS, fixed with 95% (v/v) ethanol, and stained with Fluoroshield™ with DAPI (Sigma). Infectivity was assessed considering invasion and replication capacity counting infected cells and parasites per infected cell, respectively. Infectivity index calculation = (% of infected cells X (amastigotes per cell))/number of total counted cells. Image acquisition was made with a Leica TCS-SP5 laser scanning confocal microscope (Leica Microsystems GmbH, Wetzlar, Germany) using the LASAF v.2 software (Leica Microsystems, Wetzlar, Germany) and observed using a 356 nm laser excitation line and an emission bandwidth from 461 nm under a 20× water immersion objective. Further image analysis, including quantitation and processing of figures were made using Fiji (http://fiji.sc/).

[6] = test system: J774.1 murine macrophages; assay: nonspecific cytotoxicity on mammalian cells, MTT; type: cell-based; conditions: for IC50: Mus musculus, J774.1, 48 h, MTT, read-out: IC50 ± SD (µM) Murine Macrophages; for SI J774.1/T. cruzi: ratio IC50 murine macrophages / IC50 T. cruzi epimastigotes
[7] = Leishmania infantum, promastigotes, maximum dose tested 25 µM, read-out: IC50 ± %SD (µM) L. infantum
[8] = Trypanosoma cruzi, TULAHUEN, epimastigotes, maximum dose tested 25 µM, read-out: IC50 ± %SD (µM) T. cruzi
[9] = parasites isolated from two dogs in Uruguay, maximum dose tested 25 µM

SMILES: C[C@]12CC[C@H]3[C@@H](CC=C4CC(O)CC[C@@]43C)[C@@H]1CC[C@@H]2C(=O)/C=C/C=C/c1ccco1 (stereo partly drawn) [Compound 7, (2E,4E)-5-(furan-2-yl)-1-((8S,9S,10R,13S,14S,17S)-3-hydroxy-10,13-dimethyl-2,3,4,7,8,9,10,11,12,13,14,15,16,17-tetradecahydro-1H-cyclopenta[a]phenanthren-17-yl)penta-2,4-dien-1-one]
- IC50 [1, 7]: > 25 µM
- IC50 [2, 8]: > 25 µM
- IC50 [3]: > 25 µM
- IC50 [4]: > 25 µM
- IC50 [5]: > 25 µM
- melting point: 100 to 103 °C

SMILES: C=CCn1c(-c2ccc(Cl)cc2)csc1=NN=C(C)[C@H]1CC[C@H]2[C@@H]3CC=C4C[C@@H](O)CC[C@]4(C)[C@H]3CC[C@]12C [Compound 20, 1-(3β-Hydroxy-pregn-5-ene-20E-ylidene)-2-(3-allyl-4-(4-chloro-pheny)thiazol-2(3H)-ylidene)azine]
- IC50 ([1]; Table 1S, read-out: IC50 ± %SD (µM) promastigotes L. infantum): > 25 µM
- IC50 ([2]; Table 1S, read-out: IC50 ± %SD (µM) epimastigotes T. cruzi): > 25 µM
- IC50 [3]: > 25 µM

SMILES: C=CCn1c(C(=O)O)cs/c1=N/N=C(/C)[C@@H]1CC[C@H]2[C@@H]3CC=C4CC(O)CC[C@]4(C)[C@H]3CC[C@]12C (stereo partly drawn) [Compound 19, (Z)-3-allyl-2-((E)-(1-((8S,9S,10R,13S,14S,17R)-3-hydroxy-10,13-dimethyl-2,3,4,7,8,9,10,11,12,13,14,15,16,17-tetradecahydro-1H-cyclopenta[a]phenanthren-17-yl)ethylidene)hydrazono)-2,3-dihydrothiazole-4-carboxylic acid]
- melting point: 145 to 149 °C

SMILES: C[C@]12CC[C@H]3[C@@H](CC=C4CC(O)CC[C@@]43C)[C@@H]1CC[C@@H]2C(=O)/C=C/C=C/c1ccccc1 (stereo partly drawn) [Compound 6, (2E,4E)-1-((8S,9S,10R,13S,14S,17S)-3-hydroxy-10,13-dimethyl-2,3,4,7,8,9,10,11,12,13,14,15,16,17-tetradecahydro-1H-cyclopenta[a]phenanthren-17-yl)-5-phenylpenta-2,4-dien-1-one]
- IC50 [1, 7]: > 25 µM
- IC50 [2, 8]: > 25 µM
- IC50 [3]: > 25 µM
- IC50 [4]: > 25 µM
- IC50 [5]: > 25 µM
- melting point: 116 to 119 °C

SMILES: CCCCCCCCCCCCCCCCOP(=O)([O-])OCC[N+](C)(C)C [Miltefosine, reference compound]
- IC50 [1, 7]: 0.9 ± 0.2 µM
- IC50 [2, 8]: 8 ± 2 µM
- IC50 [5, 9]: 5 ± 2 µM
- IC50 [6]: 50 ± 7 µM
- SI J774.1/L. infantum ([6]; ratio IC50 murine macrophages / IC50 L. infantum promastigotes): 56
- SI J774.1/T. cruzi [6]: 6

SMILES: C/C(=N/N=c1\[nH]c(C(=O)O)cs1)[C@@H]1CC[C@H]2[C@@H]3CC=C4CC(O)CC[C@]4(C)[C@H]3CC[C@]12C (stereo partly drawn) [Compound 18, (Z)-2-((E)-(1-((8S,9S,10R,13S,14S,17R)-3-hydroxy-10,13-dimethyl-2,3,4,7,8,9,10,11,12,13,14,15,16,17-tetradecahydro-1H-cyclopenta[a]phenanthren-17-yl)ethylidene)hydrazono)-2,3-dihydrothiazole-4-carboxylic acid]
- melting point: 281 to 283 °C

SMILES: C[C@]12CC[C@H]3[C@@H](CC=C4CC(O)CC[C@@]43C)[C@@H]1CC[C@@H]2C(=O)/C=C/c1cccnc1Br (stereo partly drawn) [Compound 1]
- IC50 [1, 7]: > 25 µM
- IC50 [2, 8]: > 25 µM
- IC50 [3]: > 25 µM
- IC50 [4]: > 25 µM
- IC50 [5]: > 25 µM
- melting point: 193 to 195 °C

SMILES: C[C@]12CC[C@H]3[C@@H](CC=C4CC(O)CC[C@@]43C)[C@@H]1CC[C@@H]2C(=O)/C=C/c1ccc(Cl)cc1 (stereo partly drawn) [Compound 3, (2E)-3-(4-Chlorophenyl)-1-((10R,13S)-2,3,4,7,8,9,10,11,12,13,14,15,16,17-tetradecahydro-3(β)-hydroxy-10,13-dimethyl-1H-cyclo-penta[a]phenanthren-17(β)-yl)prop-2-en-1-one]
- IC50 [1, 7]: > 25 µM
- IC50 [2, 8]: > 25 µM
- IC50 [3]: > 25 µM
- IC50 [4]: > 25 µM
- IC50 [5]: > 25 µM
- melting point: 159 to 161 °C

SMILES: C=CCn1c(C(=O)NCC(=O)OCC)cs/c1=N/N=C(/C)[C@@H]1CC[C@H]2[C@@H]3CC=C4CC(O)CC[C@]4(C)[C@H]3CC[C@]12C (stereo partly drawn) [Compound 14, Ethyl-2-((Z)-3-allyl-2-((E)-(1-((8S,9S,10R,13S,14S,17R)-3-hydroxy-10,13-dimethyl-2,3,4,7,8,9,10,11,12,13,14,15,16,17-tetradecahydro-1H-cyclopenta[a]phenanthren-17-yl)ethylidene)hydrazono)-2,3-dihydrothiazole-4-carboxamido)acetate]
- activity against Leishmania infantum from Fiocruz collection, in words [1]: active
- IC50 [1, 7]: > 25 µM
- IC50 [2, 8]: 8 ± 2 µM
- IC50 [3]: > 25 µM
- active against the strains isolated from Uruguayan dogs, in words [5]: not
- IC50 [5]: > 25 µM
- IC50 [6]: 100 ± 8 µM
- SI J774.1/T. cruzi [6]: 13

SMILES: CC(=O)[C@H]1CC[C@H]2[C@@H]3CC=C4C[C@@H](O)CC[C@]4(C)[C@H]3CC[C@]12C [Pregnenolone, 3β-hydroxyl-5-pregnen-20-one, reference compound]
- IC50 [1, 7]: > 25 µM
- IC50 [2, 8]: > 25 µM
- IC50 [4]: > 25 µM
- IC50 [5, 9]: > 25 µM

SMILES: C=CCn1c(-c2ccc(Br)cc2)csc1=NN=C(C)C1CCC2C3CC=C4CC(O)CCC4(C)C3CCC12C (stereo not drawn) [Compound 11, 1-(3β-Hydroxy-pregn-5-ene-20E-ylidene)-2-(3-allyl-4-(4-bromo-pheny)thiazol-2(3H)-ylidene)azine]
- IC50 [1, 7]: > 25 µM
- IC50 [2, 8]: > 25 µM
- IC50 [3]: 16 ± 3 µM
- IC50 [4]: 16 ± 3 µM
- IC50 [5]: > 25 µM
- melting point: 179 to 183 °C

SMILES: C/C(=N\Nc1nc(C(=O)N2CCN(C/C=C\c3ccccc3)CC2)cs1)[C@@H]1CC[C@H]2[C@@H]3CC=C4CC(O)CC[C@]4(C)[C@H]3CC[C@]12C (stereo partly drawn) [Compound 13, (2-((E)-2-(1-((8S,9S,10R,13S,14S,17R)-3-hydroxy-10,13-dimethyl-2,3,4,7,8,9,10,11,12,13,14,15,16,17-tetradecahydro-1H-cyclopenta[a]phenanthren-17-yl)ethylidene)hydrazinyl)thiazol-4-yl)(4-((Z)-3-phenylallyl)piperazin-1-yl)methanone]
- IC50 [1, 7]: > 25 µM
- IC50 [2, 8]: > 25 µM
- IC50 [3]: > 25 µM
- IC50 [5]: > 25 µM

SMILES: C[C@]12CC[C@H]3[C@@H](CC=C4CC(O)CC[C@@]43C)[C@@H]1CC[C@@H]2C(=O)/C=C/c1ccccc1 (stereo partly drawn) [Compound 5, (2E)-1-((10R,13S)-2,3,4,7,8,9,10,11,12,13,14,15,16,17-tetradecahydro-3(β)-hydroxy-10,13-dimethyl-1H-cyclopenta[a]phenan-thren-17(β)-yl)-3-phenylprop-2-en-1-one]
- IC50 [1, 7]: > 25 µM
- IC50 [2, 8]: > 25 µM
- IC50 [3]: > 25 µM
- IC50 [4]: > 25 µM
- IC50 [5]: > 25 µM

SMILES: CC1CS(=O)(=O)CCN1/N=C/c1ccc([N+](=O)[O-])o1 (stereo not drawn) [Nifurtimox, reference compound]
- IC50 [1, 7]: 6 ± 2 µM
- IC50 [2, 8]: 7 ± 2 µM
- IC50 [5, 9]: 10 ± 2 µM

SMILES: C=CCn1c(C(=O)N2CCN(CC=Cc3ccccc3)CC2)cs/c1=N/N=C(/C)[C@@H]1CC[C@H]2[C@@H]3CC=C4CC(O)CC[C@]4(C)[C@H]3CC[C@]12C (stereo partly drawn) [Compound 12, ((Z)-3-allyl-2-((E)-(1-((8S,9S,10R,13S,14S,17R)-3-hydroxy-10,13-dimethyl-2,3,4,7,8,9,10,11,12,13,14,15,16,17-tetradecahydro-1H-cyclopenta[a]phenanthren-17-yl)ethylidene)hydrazono)-2,3-dihydrothiazol-4-yl)(4-cinnamylpiperazin-1-yl)methanone]
- IC50 [1, 7]: > 25 µM
- IC50 [2, 8]: > 25 µM
- IC50 [3]: > 25 µM
- IC50 [5]: > 25 µM
